Structures can show the parent of a compound that is named as a salt. Active and inactive are the calls of the source.
What was measured:
[1] = molecular target: T1, Heat shock factor protein 1 (Mus musculus, UniProt P38532); assay: HSF1 potentiators in luciferase reporter cells, confirmation, cell-based, NIH3T3, luminescence, dose retest (AID 435004); assay type: functional;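 also: stress induced by proteasome inhibitor MG132 added 30 min after compound; luciferase reporter driven by HSF1 response element in NIH3T3 cells; actives raise luminescence as potentiators of the MG132 stress response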
T1 sequence (P38532 whole entry): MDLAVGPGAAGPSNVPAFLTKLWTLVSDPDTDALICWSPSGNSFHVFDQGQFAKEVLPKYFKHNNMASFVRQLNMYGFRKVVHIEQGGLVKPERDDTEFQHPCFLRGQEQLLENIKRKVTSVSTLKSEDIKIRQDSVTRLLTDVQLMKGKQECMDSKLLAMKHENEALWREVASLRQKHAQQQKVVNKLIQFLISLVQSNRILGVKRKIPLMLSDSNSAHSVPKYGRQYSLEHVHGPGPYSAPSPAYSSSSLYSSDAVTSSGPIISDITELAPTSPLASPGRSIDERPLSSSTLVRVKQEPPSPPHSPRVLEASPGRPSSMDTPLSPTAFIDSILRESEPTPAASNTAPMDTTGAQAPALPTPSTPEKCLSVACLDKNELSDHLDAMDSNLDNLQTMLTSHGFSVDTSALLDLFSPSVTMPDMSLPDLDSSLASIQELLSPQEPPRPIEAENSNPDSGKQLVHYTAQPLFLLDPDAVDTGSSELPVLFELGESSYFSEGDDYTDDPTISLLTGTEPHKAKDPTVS

[2] = Luminescence Cell-Based Dose Confirmation HTS to Identify Activators of 5'UTR Stem-Loop Driven Alpha-Synuclein mRNA Translation in H4 Neuroglioblastoma Cells. [Related pubchem assays: 1829 (Project Summary), 1814 (Primary HTS)]; assay type: functional
[3] = Luminescence Cell-Based Dose Response HTS to Identify Activators of Luciferase Translation or Activity in H4 […] Cells. [Related pubchem assays: 1829 (Project Summary), 1814 (Primary HTS)]; assay type: functional
H4 = assay: Luminescence Cell-Based Dose Response HTS to Identify Activators of 5'UTR Stem-Loop Driven Prion Protein mRNA Translation in H4 Neuroglioblastoma Cells. [Related pubchem assays: 1829 (Project Summary), 1814 (Primary HTS)]; assay type: functional; conditions: Homo sapiens
[4] = molecular target: T2, Ubiquitin-conjugating enzyme E2 N (Homo sapiens, UniProt P61088); assay type: functional;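 also: Dose-response confirmation in a TR-FRET assay detecting UBC13-driven polyubiquitin chain formation, inhibition measured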
T2 sequence (P61088 whole entry): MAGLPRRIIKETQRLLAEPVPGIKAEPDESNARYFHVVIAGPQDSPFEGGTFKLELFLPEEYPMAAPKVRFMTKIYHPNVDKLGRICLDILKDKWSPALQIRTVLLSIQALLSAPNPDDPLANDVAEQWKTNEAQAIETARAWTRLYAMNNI

[5] = molecular target: T1, Heat shock factor protein 1; assay: inhibition of MG132-induced HSE-luciferase signal, confirmation, cell-based, NIH3T3, luminescence, dose retest (AID 2382); assay type: functional;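 also: NIH3T3 fibroblasts with HSF1-driven luciferase reporter stressed by proteasome inhibitor MG132; luminescence from HSF1-driven luciferase expression after 8 hours of MG132 stress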
[6] = molecular target: T3, Rac GTPase-activating protein 1 (Homo sapiens, UniProt Q9H0H5); assay: MgcRacGAP GTPase-activating activity inhibitors, confirmation, biochemical, ADP Hunter fluorescence, primary and confirmatory (AID 624330); assay type: functional
T3 sequence (Q9H0H5 whole entry): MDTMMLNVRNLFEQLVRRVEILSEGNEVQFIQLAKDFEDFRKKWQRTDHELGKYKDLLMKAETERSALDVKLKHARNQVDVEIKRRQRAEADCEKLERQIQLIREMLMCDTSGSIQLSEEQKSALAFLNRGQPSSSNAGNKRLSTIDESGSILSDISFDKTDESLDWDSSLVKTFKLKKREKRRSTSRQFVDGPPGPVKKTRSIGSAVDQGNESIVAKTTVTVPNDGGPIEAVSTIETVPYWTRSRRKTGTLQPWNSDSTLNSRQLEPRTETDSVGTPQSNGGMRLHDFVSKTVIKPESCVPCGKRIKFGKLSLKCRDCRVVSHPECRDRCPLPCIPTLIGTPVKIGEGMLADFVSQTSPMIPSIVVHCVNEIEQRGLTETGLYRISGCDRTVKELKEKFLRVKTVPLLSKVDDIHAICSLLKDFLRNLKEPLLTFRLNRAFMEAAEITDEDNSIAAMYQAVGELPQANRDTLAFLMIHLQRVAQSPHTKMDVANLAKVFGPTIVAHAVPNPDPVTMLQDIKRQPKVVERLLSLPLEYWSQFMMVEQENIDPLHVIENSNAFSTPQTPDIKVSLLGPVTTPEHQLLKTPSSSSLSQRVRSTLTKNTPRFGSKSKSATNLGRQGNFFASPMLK

Cytochrome P450 1A2 = molecular target: T4, Cytochrome P450 1A2 (Homo sapiens, UniProt P05177);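 also: PubChem cytochrome P450 panel assay, CYP1A2 panel member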
T4 sequence (P05177 whole entry): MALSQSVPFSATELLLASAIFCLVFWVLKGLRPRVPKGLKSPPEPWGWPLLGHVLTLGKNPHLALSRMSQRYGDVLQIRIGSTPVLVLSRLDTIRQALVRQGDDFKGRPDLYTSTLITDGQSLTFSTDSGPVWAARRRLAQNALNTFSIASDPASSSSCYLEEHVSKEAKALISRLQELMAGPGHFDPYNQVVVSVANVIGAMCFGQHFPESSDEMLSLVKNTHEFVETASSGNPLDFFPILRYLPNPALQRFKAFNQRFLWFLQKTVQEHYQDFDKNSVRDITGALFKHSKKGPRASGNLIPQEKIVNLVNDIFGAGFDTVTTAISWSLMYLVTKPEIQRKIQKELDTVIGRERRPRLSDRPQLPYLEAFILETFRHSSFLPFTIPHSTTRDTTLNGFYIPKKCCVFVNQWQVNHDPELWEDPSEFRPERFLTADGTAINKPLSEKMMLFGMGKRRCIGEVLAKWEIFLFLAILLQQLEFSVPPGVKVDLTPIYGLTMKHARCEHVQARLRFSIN

Cytochrome P450 3A4 = Cytochrome P450 3A4 (Homo sapiens, UniProt P08684);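 also: CYP3A4 tested as one member of a cytochrome P450 panel screen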
[7] = Shn3 3'UTR reporter inhibitors, dose response, cell-based, Clone20 osteoblasts, firefly luciferase, cherry-picked (AID 624132); assay type: functional;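 also: firefly luciferase luminescence from reporter carrying the Shn3 3'UTR in osteoblasts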
[8] = control 3'UTR Renilla luciferase suppression, dose response, counter-screen for Shn3 inhibitor project, cell-based, Clone20-Shn3RL, cherry-picked (AID 624133); assay type: functional

Sequence of Cytochrome P450 3A4 (P08684 whole entry): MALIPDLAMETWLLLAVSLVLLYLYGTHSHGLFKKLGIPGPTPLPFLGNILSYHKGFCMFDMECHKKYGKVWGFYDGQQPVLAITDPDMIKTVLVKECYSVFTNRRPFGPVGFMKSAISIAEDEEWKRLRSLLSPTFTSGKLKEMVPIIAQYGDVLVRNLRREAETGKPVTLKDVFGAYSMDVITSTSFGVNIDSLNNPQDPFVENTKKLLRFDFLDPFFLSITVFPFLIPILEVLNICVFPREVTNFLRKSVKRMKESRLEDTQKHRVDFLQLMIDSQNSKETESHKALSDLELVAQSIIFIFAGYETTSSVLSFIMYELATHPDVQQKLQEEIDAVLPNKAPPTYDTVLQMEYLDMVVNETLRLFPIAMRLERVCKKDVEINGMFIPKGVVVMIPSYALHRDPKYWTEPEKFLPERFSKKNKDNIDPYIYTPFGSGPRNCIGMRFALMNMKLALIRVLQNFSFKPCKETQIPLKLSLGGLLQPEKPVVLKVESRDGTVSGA

In the case of `NS(=O)(=O)c1ccc(CCNC(=O)c2ccc([N+](=O)[O-])s2)cc1`, the EC50 [1] is reported as 15.7 µM (active).

For `CCOC(=O)c1c(N2C(=O)C3C4C=CC(O4)C3C2=O)sc2c1CCCC2` (centres undefined), the EC50 [1] was > 260 µM (inactive).

For `CCOc1ccc(NC(=O)c2cccc3ccccc23)cc1`, the EC50 [2] was 72.3 µM (active), the EC50 [3] was 11.5 µM (active) and the EC50 (H4) was > 120 µM (not active).

For `CCc1ccc(NC(=O)c2cnc3scc(C)n3c2=O)cc1`, the EC50 [2] was 9.98 µM (active), the EC50 [3] was 17.6 µM (active) and the EC50 (H4) was 12.6 µM (active).

In the case of `O=C(CCS(=O)(=O)c1ccccc1)Nc1ccccn1`, the EC50 [1] is reported as > 260 µM (inactive).

In the case of `O=[N+]([O-])c1c(-c2cn[nH]c2)n[nH]c1-c1cn[nH]c1`, the IC50 [4] is reported as > 20 µM (inactive).

For `CSc1ccc(N2C(=O)NC3(CCCCC3)C2=O)cc1`, the EC50 [2] was 20.4 µM (active), the EC50 [3] was 96.3 µM (active) and the EC50 (H4) was 19.7 µM (active).

With `O=C(CSc1ncccn1)NCCc1ccccc1` the EC50 [5] was > 195 µM (not active).

In the case of `COc1cccc(-n2c(SCC(=O)NCC3CCCO3)nc3c(c2=O)SCC3)c1` (centres undefined), the EC50 [5] is reported as > 195 µM (not active).

With `COCCCNC(=O)c1ccc(NS(C)(=O)=O)cc1` the EC50 [1] was > 260 µM (inactive).

With `Cc1ccc(NC(=O)CN(C)C2CCCCC2)cc1Cl` the EC50 [5] was > 195 µM (not active) and the IC50 [6] was 152 µM (active).

For `O=C(CSCc1ccccc1)Nc1ccc2c(c1)OCO2`, the EC50 [2] was 26 µM (active), the EC50 [3] was 2.27 µM (inconclusive) and the EC50 (H4) was 18.6 µM (active).

In the case of `CC(=O)Nc1ccc(S(=O)(=O)N2CCN(CC(O)COc3ccc4ccccc4c3)CC2)cc1` (centres undefined), the IC50 [4] is reported as > 20 µM (inactive).

In the case of `COc1cccc(CNc2ccc([N+](=O)[O-])cc2Cl)c1O`, the EC50 [1] is reported as 163 µM (active).

In the case of `Cc1ccc2c(c1)c1cccc3c1n2CCN3CCC(N)=O`, the EC50 [2] is reported as 1.71 µM (active), the EC50 [3] is reported as > 120 µM (not active) and the EC50 (H4) is reported as 9.21 µM (active).

In the case of `Cc1ccc(SCCCCN2CCOCC2)cc1`, the EC50 [1] is reported as > 260 µM (inactive).

In the case of `CC(C)(C)c1cc(-n2ccnc2)n2ncc(-c3ccc(Cl)cc3)c2n1`, the EC50 [2] is reported as > 120 µM (not active), the EC50 [3] is reported as 13.7 µM (active) and the EC50 (H4) is reported as 78.9 µM (active).

With `NC(CSCc1cccc(Br)c1)C(=O)O` (centres undefined) the EC50 [1] was > 260 µM (inactive).

With `Oc1ccccc1N1CCN(c2ncnc3scc(-c4ccc(F)cc4)c23)CC1` the EC50 [5] was > 195 µM (not active).

In the case of `COc1ccc([C@@H]2[C@@H]3C(=O)N(C(C)(C)C)C(=O)[C@@H]3[C@]3(Cc4ccccc4)C(=O)N(c4cccc(C)c4)C(=O)N23)cc1`, the EC50 [2] is reported as > 120 µM (not active), the EC50 [3] is reported as > 120 µM (not active) and the EC50 (H4) is reported as > 120 µM (not active).

For `COc1ccccc1NC(=O)[C@H](COCc1ccccc1)NC(=O)OC(C)(C)C`, the EC50 [5] was > 195 µM (not active), the AC50 (Cytochrome P450 1A2) was 25.1 µM (inconclusive) and the AC50 (Cytochrome P450 3A4) was 39.8 µM (inconclusive).

With `C=CCn1c(C)cc(C(=O)COC(=O)CNC(=O)c2ccccc2)c1C` the EC50 [5] was 2.44 µM (active).

With `CC1=CC(C)=Nc2cc(C)ccc2N1` the EC50 [2] was 33.3 µM (active), the EC50 [3] was > 60 µM (not active) and the EC50 (H4) was 41.1 µM (active).

In the case of `CCOc1ccc(NC(=O)C2CC(=O)N3CCCN=C3S2)cc1` (centres undefined), the EC50 [1] is reported as > 260 µM (inactive).

In the case of `COc1ccc([C@H]2CC(=O)C=C(c3ccc4c(c3)OCO4)C2)cc1OC`, the AC50 [7] is reported as 58.3 µM (active) and the AC50 [8] is reported as 28.9 µM (active).

In the case of `O=C(Cc1ccccc1)Nc1cc(Cl)ccc1Sc1ccccc1`, the EC50 [1] is reported as > 260 µM (inactive).

With `CN(C)c1ccc(/C=N/NC(=O)c2ccccc2Cl)cc1` the EC50 [5] was > 195 µM (not active).

In the case of `COc1cc(/C=N/N2CCN(C3c4ccccc4-c4ccccc43)CC2)cc(OC)c1OC`, the EC50 [1] is reported as > 260 µM (inactive).

For `CN1CCCC(CC2c3ccccc3Sc3ccccc32)C1` (centres undefined) [METHIXENE HYDROCHLORIDE], the IC50 [4] was > 20 µM (inactive).

— ChEMBL document CHEMBL1201862, “PubChem BioAssay data set” (2004)
